Here are results for 1 compound from BindingDB's records for PubMed 11408556 (Astrazeneca Pharmaceuticals, 2001).

SMILES strings stand for the structures. Where “and” joins values, the source holds several entries; their conditions need not be identical. Identical values can stand only once.

The target in the assay is Substance-P receptor (Homo sapiens, UniProt P25103).
Chain of Substance-P receptor (P25103 whole entry): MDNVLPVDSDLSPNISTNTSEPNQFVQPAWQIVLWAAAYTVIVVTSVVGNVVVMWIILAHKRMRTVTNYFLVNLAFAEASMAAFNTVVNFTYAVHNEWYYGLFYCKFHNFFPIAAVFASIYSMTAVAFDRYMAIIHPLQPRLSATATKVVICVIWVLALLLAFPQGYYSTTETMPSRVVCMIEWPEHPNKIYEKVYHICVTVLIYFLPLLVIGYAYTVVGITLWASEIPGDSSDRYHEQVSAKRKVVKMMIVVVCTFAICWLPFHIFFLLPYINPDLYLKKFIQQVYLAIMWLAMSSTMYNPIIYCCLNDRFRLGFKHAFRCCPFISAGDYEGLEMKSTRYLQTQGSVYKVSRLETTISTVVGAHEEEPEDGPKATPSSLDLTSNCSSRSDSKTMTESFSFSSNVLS

As for `CN(C[C@@H](CCN1CCC(c2ccccc2[S+](C)[O-])CC1)c1ccc(Cl)c(Cl)c1)C(=O)c1cc(C#N)cc2ccccc12` (stereo partly specified), the Ki is 0.61 nM and 0.12 nM.
